Entries after “also recorded” stand apart in the source; their conditions may differ.
How the values were obtained:
normal iPSC BC1 = assay: in vitro megakaryocyte lineage differentiation of iPSC BC1 (spin-EB), flow cytometry at Day 14; type: cell-based, human; conditions: for decrease of proportion of HSPCs (CD34+CD45+) vs DMSO control / proportion of MKPs (CD34+CD41+) produced, increased fold vs DMSO control (set as 1) / proportion of mature megakaryocytes MKs (CD41+CD42+) produced, increased fold vs DMSO control (set as 1): FIG. 7A; for production of megakaryocyte progenitor cells and/or mature megakaryocytes in vitro: screen in the in vitro differentiation system of stem cells
Procedure: BC1 cell line was cultured in E8 medium, under the culture condition of 37° C., 5% CO2, and was passaged at (1:5)-(1:10) every 3-4 days depending on the concentration of cells. The cells were incubated in 0.5 mM EDTA, at room temperature for 2 min, and then were re-suspended and split up and down with E8 medium, and transferred to a culture dish that had been coated with Vitronectin one hour before.
During differentiation, spin-embryoid body (spin-EB) method was used (Ng E S, Davis R, Stanley E G, Elefanty A G, A protocol describing the use of a recombinant protein-based, animal product-free medium (APEL) for human embryonic stem cell differentiation as spin embryoid bodies, Nat Protoc. 2008; 3(5): 768-76.). At Day 0 (D0) after differentiation, iPSCs reached a confluence of above 85% (confluence refers to the percentage of the surface of a culture dish that is covered by adherent cells). After digestion with Accutase at 37° C. for 3 min, the cells were neutralized and split in SFM medium (50% IMDM, 50% Ham's F12, and the added reagents and factors including: human albumin, monothioglycerol, Glutamax, Chemically Defined Lipid Concentrate, L-Ascorbic acid 2-phosphate sesquimagnesium salt hydrate, ITS-X), counted, and centrifuged. After the cells were re-suspended in SFM, cytokines, i.e. 10 μM ROCK inhibitor (Rho-associated protein kinase inhibitor), 10 ng/ml bFGF, and 10 ng/ml BMP4, were added. Cells were seeded to a round-bottom 96-well plate, at 3000 or 5000 cells/50 μl for each well (3000 or 5000 cells were seeded to each well, in a volume of 50 μl for each well). At Day 2, 50 μl SFM medium+10 ng/ml bFGF+10 ng/ml BMP4+100 ng/ml SCF+20 ng/ml VEGF was added to each well. At Day 5, Day 8, and Day 11, 50 μl SFM medium+10 ng/ml bFGF+10 ng/ml BMP4+50 ng/ml SCF+10 ng/ml VEGF was added to each well, wherein 100 μl old medium was pipetted off at Day 8, and 10 ng/ml thrombopoietin (TPO) was added to each well at Day 11.
At Day 14 (D14), single cells (suspending cells) surrounding embryoid bodies (EBs) were collected. The cells were used in the following flow cytometry.
The cell surface markers (CD34, CD45, CD41, CD42) of the collected cells were detected by flow cytometer. The assay was as followed.
The detection was carried out in four tubes: the first tube was a negative tube that was not labeled with any flow antibody; the second tube was labelled with two antibodies CD34-APC and CD45-PE; the third tube was labeled with CD34-APC and CD41-PE; and the fourth tube was labeled with CD41-PE and CD42-APC, wherein CD34^+CD45^+represented the population of hematopoietic stem/progenitor cells (HSPCs), CD34^+CD41^+ represented the population of megakaryocyte progenitor cells (MKPs), and CD41^+CD42^+ represented the population of mature megakaryocytes (MKs).
(1) The BC1 cell line used was the same as the one used in Example 1, and was divided into three groups, wherein two 96-well plates were used for each group, and the cells were seeded at 5000 cells/50 μl to each well. In vitro differentiation was carried out by reference to the steps in Example 1, wherein the step of adding a drug was carried out in accordance with the following steps in I-III groups:
I. At Day 0 after differentiation, 10 μM RO4929097 was added, and DMSO was added to the control well.
III. At Day 2 after differentiation, 10 μM RO4929097, 10 μM L-685458, and 10 μM DAPT were added, respectively; in addition, at Day 5 after differentiation, 10 μM RO4929097, 10 μM L-685458, and 10 μM DAPT were added, respectively.
(2) The cells were collected for flow cytometry analysis, and as to the steps, please refer to the Example 1 above. […]
I. At Day 0 after differentiation, 10 μM RO4929097, and 10 μM DAPT were added, respectively.
II. At Day 2 after differentiation, 10 μM RO4929097, and 10 μM DAPT were added, respectively.
III. At Day 5 after differentiation, 10 μM RO4929097, and 10 μM DAPT were added, respectively.
IV. […]

[1] = test system: iPSCs-derived CD34+ cells; assay: polyploid detection, iPSC-derived CD34+ cells; type: cell-based, human; conditions: 10 μM; Notch inhibitor added since Day 5; DMSO about 18%; FIG. 17
Procedure: iPSC-derived CD34^+ cells (prepared by the method as described in Example 3-2) and umbilical cord blood-derived CD34^+ cells were seeded at 1*10^6 cells per well to 4 ml StemSpan™ SFEM 11+50 ng/ml SCF+50 ng/ml TPO+50 ng/ml IL-6+20 ng/ml IL-3, in a 12-well plate, with 1 ml medium for each well, and 3 wells in total for each cell line, […] The liquid was changed every 3 days, and the culture condition was 37° C., 5% CO2. After iPSC-derived CD34^+ cells were incubated for 6 days, and umbilical cord blood-derived CD34^+ cells were incubated for 9 days, the following experiment was carried out.
Cells were labeled with CD61-FITC flow cytometric antibody at 4° C. for 30 min. The cells were washed with PBS once, and fixed with 70% ethanol at 4° C. overnight. At the second day, the cells were washed with PBS once. After centriguation, 1 ml PBE (PBS containing 2% serum) +100 μg/ml RNase A +50 μg/ml Propidium Iodide, was added, and incubation was carried out in dark at room temperature for 30 min. The cells were washed with PBS once, and the number of cells (≥8N) in CD61^+ cell population was determined by flow cytometry.

[2] = 10 μM at Day 5 after in vitro differentiation, found by comparison

Structure (SMILES)	decrease of proportion of HSPCs (CD34+CD45+) vs DMSO control (normal iPSC BC1; 10 μM added at Day 2)	proportion of MKPs (CD34+CD41+) produced, increased fold vs DMSO control (set as 1) (normal iPSC BC1; 10 μM added at Day 2)	proportion of mature megakaryocytes MKs (CD41+CD42+) produced, increased fold vs DMSO control (set as 1) (normal iPSC BC1; 10 μM added at Day 2)	number of MKPs (CD34+CD41+) produced, increase vs DMSO control (normal iPSC BC1; 10 μM added at Day 2, FIG. 9)	number of mature megakaryocytes MKs (CD41+CD42+) produced, increase vs DMSO control (normal iPSC BC1; 10 μM added at Day 2, FIG. 9)	proportion of mature megakaryocytes MKs produced, increased fold vs DMSO control (set as 1) (normal iPSC BC1; 10 μM added at Day 5, FIG. 7B)	total number of hematopoietic cells, increase vs control group (normal iPSC BC1; 10 μM added at Day 5, FIG. 7B)	number of HSPCs (CD34+CD45+), increase vs DMSO control (normal iPSC BC1; 10 μM added at Day 5, FIG. 10)	number of MKPs (CD34+CD41+) produced, increase vs DMSO control (normal iPSC BC1; 10 μM added at Day 5, FIG. 10)	number of mature megakaryocytes MKs (CD41+CD42+) produced, increase vs DMSO control (normal iPSC BC1; 10 μM added at Day 5, FIG. 10)	number of MKPs (CD34+CD41+) produced, increase vs DMSO control (normal iPSC BC1; 10 μM added at Day 8, FIG. 12)	number of mature megakaryocytes MKs (CD41+CD42+) produced, increase vs DMSO control (normal iPSC BC1; 10 μM added at Day 8, FIG. 12)	number of mature megakaryocytes MKs (CD41+CD42+) produced, increase vs DMSO control (normal iPSC BC1; 10 μM added at Day 11, FIG. 13)	production of megakaryocyte progenitor cells and/or mature megakaryocytes in vitro (normal iPSC BC1)	proportion of polyploid megakaryocytes (≥8N) in CD61+ megakaryocytes [1]	further results
C[C@H](NC(=O)Cc1cc(F)cc(F)c1)C(=O)N[C@H](C(=O)OC(C)(C)C)c1ccccc1 [DAPT]	35%	about 1.5 folds	about 2.4 folds	2.5 folds	4.3 folds	about 4.1 folds	2.8 folds	2.8 folds	about 6.5 folds	about 6.7 folds	1.5 folds	1.5 folds	1.3 folds	significantly promote	~21%	proportion of HSPCs produced, increased fold vs DMSO control (set as 1) (normal iPSC BC1; 10 μM added at Day 5, FIG. 7B): about 1.5 folds; proportion of MKPs produced, increased fold vs DMSO control (set as 1) (normal iPSC BC1; 10 μM added at Day 5, FIG. 7B): about 1.5 folds; promotion of the production of mature megakaryocytes (normal iPSC BC1; [2]): ~12 folds; promotion of the production of megakaryocyte progenitor cells (normal iPSC BC1; [2]): 4 folds
CC(C)(C(=O)NCC(F)(F)C(F)(F)F)C(=O)N[C@@H]1C(=O)Nc2ccccc2-c2ccccc21 [RO4929097]	40%	about 1.4 folds	about 2.5 folds	2.5 folds	4.3 folds	about 2.6 folds	did not change	2.8 folds	about 6.5 folds	about 6.7 folds	1.5 folds	1.5 folds	1.3 folds	significantly promote	about 17%	proportion of HSPCs (CD34+CD45+) (normal iPSC BC1; 10 μM added at Day 0, FIG. 5): ~0%; proportion of MKPs (CD34+CD41+) (normal iPSC BC1; 10 μM added at Day 0, FIG. 5): ~0%; proportion of MKs (CD41+CD42+) (normal iPSC BC1; 10 μM added at Day 0, FIG. 5): ~0%; formation of hematopoietic embryoid body (EB) (normal iPSC BC1; 10 μM added at Day 0 after differentiation): no hematopoietic embryoid body EB was formed; also recorded: no hematopoietic embryoid body (EB) could be formed; increase of proportion of mature megakaryocytes MKs (CD41+CD42+) produced vs DMSO control (normal iPSC BC1; 10 μM added at Day 2, FIG. 6): 64%; increase of proportion of megakaryocyte progenitor cells MKPs (CD34+CD41+) produced vs DMSO control (normal iPSC BC1; 10 μM added at Day 2, FIG. 6): 67%; decrease of proportion of HSPCs vs DMSO control (normal iPSC BC1; 10 μM added at Day 5, FIG. 7B): 11%; effect on promoting the production of MKPs and MKs (normal iPSC BC1; 15 μM added at Day 2, FIG. 6, not as significant as 10 μM): a certain effect on promoting the production of MKPs and MKs
